Earlier results as cited in US5892063A (Hauser, Inc., priority 1997, dated 1999).

Legend:
[1] = test system: microtubule; conditions: relative to paclitaxel; cited from earlier work
[2] = test system: murine and human xenografts; conditions: cited from earlier work
[3] = test system: tumor models; conditions: vs paclitaxel, cisplatin, cyclophosphamide, doxorubicin; same tumor models; cited from earlier work
[4] = cited from earlier work
[5] = test system: murine and human tumor cell lines; conditions: cited from earlier work

CC(=O)O[C@@]12CO[C@@H]1C[C@H](O)[C@@]1(C)C(=O)[C@H](O)C3=C(C)[C@@H](OC(=O)[C@H](O)[C@@H](NC(=O)OC(C)(C)C)c4ccccc4)C[C@@](O)([C@@H](OC(=O)c4ccccc4)[C@H]21)C3(C)C [Docetaxel, docetaxel]
potency as inhibitor of microtubule depolymerization vs paclitaxel [1]: twice as potent | in vivo preclinical activity [2]: impressive | cytotoxic activity vs other antineoplastic agents [3]: higher cytoxic activity than other antineoplastic agents | aqueous solubility [4]: low aqueous solubility | in vitro cytotoxicity [5]: impressive
